In ChEMBL document CHEMBL1201862, “PubChem BioAssay data set” (2004):
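Dose response: 5 concentrations. Exposure: 48 h. Format: 96-well plates. Endpoint: linear interpolation; highest concentration if not reached. Abbreviation: GI50, concentration required for 50% inhibition of growth.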 Active and inactive are the calls of the source. No stated cut-off is given here; in the data, active = GI50 up to about 1.1 µM and inactive = higher.

Columns and labels:
Experiment in all cases: NCI-60 cell line screen, 48 h
A549 = system: A549
CAKI-1 = system: CAKI-1
DU-145 = system: DU-145
EKVX = system: EKVX
HOP-92 = system: HOP-92
HT-29 = system: HT-29
MOLT-4 = system: MOLT-4
Malme-3M = system: Malme-3M
NCI-H226 = system: NCI-H226
NCI-H460 = system: NCI-H460
NCI-H522 = system: NCI-H522
NCI/ADR-RES = system: NCI/ADR-RES
OVCAR-3 = system: OVCAR-3
OVCAR-8 = system: OVCAR-8
SF-268 = system: SF-268
SK-MEL-28 = system: SK-MEL-28
SN12C = system: SN12C
SNB-19 = system: SNB-19
SW-620 = system: SW-620
TK-10 = system: TK-10

Row | SMILES | GI50 (A549) | GI50 (CAKI-1) | GI50 (DU-145) | GI50 (EKVX) | GI50 (HOP-92) | GI50 (HT-29) | GI50 (MOLT-4) | GI50 (Malme-3M) | GI50 (NCI-H226) | GI50 (NCI-H460) | GI50 (NCI-H522) | GI50 (NCI/ADR-RES) | GI50 (OVCAR-3) | GI50 (OVCAR-8) | GI50 (SF-268) | GI50 (SK-MEL-28) | GI50 (SN12C) | GI50 (SNB-19) | GI50 (SW-620) | GI50 (TK-10)
1 | CC(C)CCCC(C)[C@H]1CC[C@H]2[C@@H]3CC[C@H]4C[C@@H](CCC=C(c5cc(Cl)c(O)c(C(=O)O)c5)c5cc(Cl)c(O)c(C(=O)O)c5)CC[C@]4(C)[C@H]3CC[C@]12C (stereo not given in full) | > 50000 nM (inactive) | > 50000 nM (inactive) | > 50000 nM (inactive) | > 50000 nM (inactive) | > 50000 nM (inactive) | > 50000 nM (inactive) | > 50000 nM (inactive) | > 50000 nM (inactive) | > 50000 nM (inactive) | 25400 nM (inactive) | > 50000 nM (inactive) | > 50000 nM (inactive) | > 50000 nM (inactive) | > 50000 nM (inactive) | > 50000 nM (inactive) | > 50000 nM (inactive) | > 50000 nM (inactive) | > 50000 nM (inactive) | > 50000 nM (inactive) | > 50000 nM (inactive)
2 | C#CC1(O)C(COP(=O)(O)OC(COCCCCCCCCCCCCCCCCCC)COP(=O)(O)OCC2OC(n3cc(C)c(=O)[nH]c3=O)CC2N=[N+]=[N-])OC(n2ccc(N)nc2=O)C1O (stereo not given) | 290 nM (active) | 310 nM (active) | 946 nM (active) | 5250 nM (inactive) | 910 nM (active) | 1160 nM (inactive) | 347 nM (active) | 1660 nM (inactive) | 1560 nM (inactive) | 84.3 nM (active) | 83 nM (active) | 1220 nM (inactive) | 4580 nM (inactive) | 881 nM (active) | 957 nM (active) | 2310 nM (inactive) | 807 nM (active) | 1800 nM (inactive) | 453 nM (active) | 505 nM (active)
3 | COc1ccc2c(c1)c(=Cc1ccc(N(C)C)cc1)c1cc(-c3ccccc3)[n+](C)n12 | 643 nM (active) | 1490 nM (inactive) | 479 nM (active) | 255 nM (active) | 187 nM (active) | 171 nM (active) | 305 nM (active) | 343 nM (active) | 150 nM (active) | 245 nM (active) | 72.8 nM (active) | 3660 nM (inactive) | 230 nM (active) | 154 nM (active) | 226 nM (active) | 634 nM (active) | 345 nM (active) | 282 nM (active) | 377 nM (active) | 461 nM (active)
